Test results: ChEMBL document CHEMBL1201862, “PubChem BioAssay data set” (2004)
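Results reflect a 48-hour exposure of cells in 96-well plates to compound at five concentrations. GI50: concentration for 50% inhibition of growth.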 Active and inactive are the calls of the source. Cut-off read from the data, not from the text of the source: active = GI50 up to about 1.1 µM and inactive = higher.

What was measured:
Assay in all cases: inhibition of tumour cell growth, NCI panel, 48 h
HCC 2998 = system: HCC 2998
HCT-15 = system: HCT-15
OVCAR-4 = system: OVCAR-4
ACHN = system: ACHN
NCI-H522 = system: NCI-H522
EKVX = system: EKVX
SF-539 = system: SF-539
SK-MEL-2 = system: SK-MEL-2
CAKI-1 = system: CAKI-1
K562 = system: K562
HOP-92 = system: HOP-92
A498 = system: A498
SK-OV-3 = system: SK-OV-3
NCI-H460 = system: NCI-H460
OVCAR-3 = system: OVCAR-3
NCI-H226 = system: NCI-H226

| SMILES | GI50 (HCC 2998) | GI50 (HCT-15) [µM] | GI50 (OVCAR-4) | GI50 (ACHN) | GI50 (NCI-H522) | GI50 (EKVX) | GI50 (SF-539) | GI50 (SK-MEL-2) | GI50 (CAKI-1) | GI50 (K562) | GI50 (HOP-92) | GI50 (A498) | GI50 (SK-OV-3) | GI50 (NCI-H460) | GI50 (OVCAR-3) | GI50 (NCI-H226) |
| --- | --- | --- | --- | --- | --- | --- | --- | --- | --- | --- | --- | --- | --- | --- | --- | --- |
| CN(CC(=O)O)S(=O)(=O)c1ccc(F)cc1 | > 100 µM (inactive) | > 100 | > 100 µM (inactive) | > 100 µM (inactive) | > 100 µM (inactive) | > 100 µM (inactive) | > 100 µM (inactive) | > 100 µM (inactive) | > 100 µM (inactive) | > 100 µM (inactive) | > 100 µM (inactive) | > 100 µM (inactive) | > 100 µM (inactive) | > 100 µM (inactive) | > 100 µM (inactive) |  |
| Cc1ccc(NC(=O)c2cccc([N+](=O)[O-])c2O)c([N+](=O)[O-])c1 | 15.9 µM (inactive) | 14.4 | 13.5 µM (inactive) | 16.4 µM (inactive) | 14.1 µM (inactive) | 23.2 µM (inactive) | 14.7 µM (inactive) |  | 29.5 µM (inactive) | 18.8 µM (inactive) | 21.5 µM (inactive) | 16 µM (inactive) | 26.9 µM (inactive) | 5.58 µM (inactive) | 18.9 µM (inactive) | 3.29 µM (inactive) |
| CC(=O)N(CCN1C(=O)c2ccccc2C1=O)CCN1C(=O)c2ccccc2C1=O | > 100 µM (inactive) | > 100 | > 100 µM (inactive) | > 100 µM (inactive) | > 100 µM (inactive) | > 100 µM (inactive) |  | > 100 µM (inactive) | > 100 µM (inactive) | > 100 µM (inactive) | > 100 µM (inactive) | > 100 µM (inactive) | > 100 µM (inactive) | > 100 µM (inactive) | > 100 µM (inactive) |  |
| C[n+]1cccc(NC(=O)c2ccc(NC(=O)C34CCC(C(=O)Nc5ccc(C(=O)Nc6ccc[n+](C)c6)cc5)(CC3)CC4)cc2)c1 |  | 58.2 | > 100 µM (inactive) | 17.9 µM (inactive) | 5.42 µM (inactive) | 26.9 µM (inactive) | 80.5 µM (inactive) |  |  | 2.55 µM (inactive) | > 100 µM (inactive) | 18 µM (inactive) |  | 7.45 µM (inactive) |  | > 100 µM (inactive) |
| COC(=O)N/N=C(/Cc1occc(=O)c1O)C(=O)Nc1ccc([N+](=O)[O-])cc1[N+](=O)[O-] | > 100 µM (inactive) | > 100 | > 100 µM (inactive) | > 100 µM (inactive) | > 100 µM (inactive) | > 100 µM (inactive) | > 100 µM (inactive) | > 100 µM (inactive) | > 100 µM (inactive) | > 100 µM (inactive) | > 100 µM (inactive) | > 100 µM (inactive) | > 100 µM (inactive) | > 100 µM (inactive) |  | > 100 µM (inactive) |
| COc1ccc(C2ON(c3ccccc3)CC=C2C)cc1 (stereo not drawn) | > 100 µM (inactive) | 65.9 | 34.5 µM (inactive) | 79.1 µM (inactive) | 19.2 µM (inactive) | > 100 µM (inactive) | > 100 µM (inactive) | 24 µM (inactive) | 47.8 µM (inactive) | 60.5 µM (inactive) |  |  | > 100 µM (inactive) | > 100 µM (inactive) | > 100 µM (inactive) | > 100 µM (inactive) |
| COCC(O)CN1C(N)=NC(O)C1O (stereo not drawn) | > 100 µM (inactive) |  |  | > 100 µM (inactive) | > 100 µM (inactive) | > 100 µM (inactive) | > 100 µM (inactive) | > 100 µM (inactive) | > 100 µM (inactive) |  | > 100 µM (inactive) |  |  | > 100 µM (inactive) |  | > 100 µM (inactive) |
| CC(=O)OC1COC(N2C(=O)C(=O)c3cc(Br)c([N+](=O)[O-])cc32)C(OC(C)=O)C1OC(C)=O (stereo not drawn) | > 100 µM (inactive) | > 100 | 42.6 µM (inactive) | > 100 µM (inactive) | 48.8 µM (inactive) | 96.4 µM (inactive) | > 100 µM (inactive) | > 100 µM (inactive) | > 100 µM (inactive) | 26.2 µM (inactive) | 34.8 µM (inactive) |  | 96.8 µM (inactive) | > 100 µM (inactive) | 48.2 µM (inactive) | > 100 µM (inactive) |
| COc1ccc(-c2cc(=O)c3ccccc3o2)cc1N | 38 µM (inactive) | 46.6 | 40.9 µM (inactive) | 37.1 µM (inactive) | 20.5 µM (inactive) | 16.4 µM (inactive) | 33.9 µM (inactive) | 37.2 µM (inactive) | 18.7 µM (inactive) | 12.2 µM (inactive) | 76.2 µM (inactive) | 37.4 µM (inactive) | > 100 µM (inactive) | 36 µM (inactive) | 31.8 µM (inactive) | > 100 µM (inactive) |
| O/N=C(\c1nc2ccc(Cl)cc2nc1O)C(O)c1ccc(Cl)cc1Cl (stereo not drawn) | > 100 µM (inactive) | > 100 | > 100 µM (inactive) | > 100 µM (inactive) | > 100 µM (inactive) |  | > 100 µM (inactive) |  | > 100 µM (inactive) | > 100 µM (inactive) | > 100 µM (inactive) |  | > 100 µM (inactive) | > 100 µM (inactive) | > 100 µM (inactive) | > 100 µM (inactive) |
